PubChem BioAssay (NCI)
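Method: 48-hour compound exposure of cells in 96-well plates, five concentrations, linear interpolation of endpoints. GI50 = concentration required for 50% inhibition of growth. TGI: concentration producing complete growth inhibition.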

What was measured:
Experiment in all cases: inhibition of tumour cell growth, NCI panel, 48 h
786-0 renal = tested on: 786-0 renal
A498 renal = tested on: A498 renal
A549 NSCLC = tested on: A549 NSCLC
ACHN renal = tested on: ACHN renal
BT-549 breast = tested on: BT-549 breast
CAKI-1 renal = tested on: CAKI-1 renal
CCRF-CEM leukemia = tested on: CCRF-CEM leukemia
COLO 205 colon = tested on: COLO 205 colon
DU-145 prostate = tested on: DU-145 prostate
EKVX NSCLC = tested on: EKVX NSCLC
HCT-116 colon = tested on: HCT-116 colon
HCT-15 colon = tested on: HCT-15 colon
HL-60(TB) leukemia = tested on: HL-60(TB) leukemia
HS 578T breast = tested on: HS 578T breast
HT29 colon = tested on: HT29 colon
IGROV1 ovarian = tested on: IGROV1 ovarian
K-562 leukemia = tested on: K-562 leukemia
KM12 colon = tested on: KM12 colon
LOX IMVI melanoma = tested on: LOX IMVI melanoma
M14 melanoma = tested on: M14 melanoma
MCF7 breast = tested on: MCF7 breast
MDA-MB-231 breast = tested on: MDA-MB-231 breast
MDA-MB-435 = tested on: MDA-MB-435
MOLT-4 leukemia = tested on: MOLT-4 leukemia
NCI-H226 lung = tested on: NCI-H226 lung
NCI-H23 lung = tested on: NCI-H23 lung
NCI-H460 lung = tested on: NCI-H460 lung
NCI-H522 lung = tested on: NCI-H522 lung
NCI/ADR-RES ovarian = tested on: NCI/ADR-RES ovarian
OVCAR-3 ovarian = tested on: OVCAR-3 ovarian
OVCAR-4 ovarian = tested on: OVCAR-4 ovarian
OVCAR-5 ovarian = tested on: OVCAR-5 ovarian
OVCAR-8 ovarian = tested on: OVCAR-8 ovarian
PC-3 prostate = tested on: PC-3 prostate
RPMI-8226 leukemia = tested on: RPMI-8226 leukemia
RXF 393 renal = tested on: RXF 393 renal
SF-268 CNS = tested on: SF-268 CNS
SF-295 CNS = tested on: SF-295 CNS
SF-539 CNS = tested on: SF-539 CNS
SK-MEL-2 melanoma = tested on: SK-MEL-2 melanoma
SK-MEL-28 melanoma = tested on: SK-MEL-28 melanoma
SK-MEL-5 melanoma = tested on: SK-MEL-5 melanoma
SN12C renal = tested on: SN12C renal
SNB-19 CNS = tested on: SNB-19 CNS
SNB-75 CNS = tested on: SNB-75 CNS
SR leukemia = tested on: SR leukemia
SW-620 colon = tested on: SW-620 colon
TK-10 renal = tested on: TK-10 renal
U251 CNS = tested on: U251 CNS
UACC-257 melanoma = tested on: UACC-257 melanoma
UACC-62 melanoma = tested on: UACC-62 melanoma
UO-31 renal = tested on: UO-31 renal

Q: For `COc1c(N2CCN(CN3C(=O)C(=Nc4ccc(S(=O)(=O)Nc5ncccn5)cc4)c4ccccc43)C(C)C2)c(F)cc2c(=O)c(C(=O)O)cn(C3CC3)c12` (centres undefined), which GI50 (786-0 renal) is on record?
A: > 50 µM

Q: What about the TGI (786-0 renal) of the same compound?
A: > 50 µM

Q: And the GI50 (A498 renal)?
A: 0.833 µM

Q: What about the TGI (A498 renal) of the same compound?
A: 14.2 µM

Q: What about the GI50 (A549 NSCLC) of the same compound?
A: > 50 µM

Q: What about the TGI (A549 NSCLC) of the same compound?
A: > 50 µM

Q: What about the GI50 (ACHN renal) of the same compound?
A: > 50 µM

Q: And the TGI (ACHN renal)?
A: > 50 µM

Q: And the GI50 (BT-549 breast)?
A: 19.6 µM

Q: And the TGI (BT-549 breast)?
A: > 50 µM

Q: And the GI50 (CAKI-1 renal)?
A: 48 µM

Q: What about the TGI (CAKI-1 renal) of the same compound?
A: > 50 µM

Q: What about the GI50 (CCRF-CEM leukemia) of the same compound?
A: 44.4 µM

Q: What about the TGI (CCRF-CEM leukemia) of the same compound?
A: > 50 µM

Q: And the GI50 (COLO 205 colon)?
A: 0.269 µM

Q: And the TGI (COLO 205 colon)?
A: > 50 µM

Q: And the GI50 (DU-145 prostate)?
A: 11.2 µM

Q: And the TGI (DU-145 prostate)?
A: 35.2 µM

Q: What about the GI50 (EKVX NSCLC) of the same compound?
A: > 50 µM

Q: And the TGI (EKVX NSCLC)?
A: > 50 µM

Q: What about the GI50 (HCT-116 colon) of the same compound?
A: 18.2 µM

Q: What about the TGI (HCT-116 colon) of the same compound?
A: > 50 µM

Q: What about the GI50 (HCT-15 colon) of the same compound?
A: 20.7 µM

Q: What about the TGI (HCT-15 colon) of the same compound?
A: > 50 µM

Q: And the GI50 (HL-60(TB) leukemia)?
A: > 50 µM

Q: And the TGI (HL-60(TB) leukemia)?
A: > 50 µM

Q: What about the GI50 (HS 578T breast) of the same compound?
A: > 50 µM

Q: What about the TGI (HS 578T breast) of the same compound?
A: > 50 µM

Q: What about the GI50 (HT29 colon) of the same compound?
A: 22.3 µM

Q: What about the TGI (HT29 colon) of the same compound?
A: > 50 µM

Q: What about the GI50 (IGROV1 ovarian) of the same compound?
A: 19.2 µM

Q: And the TGI (IGROV1 ovarian)?
A: > 50 µM

Q: What about the GI50 (K-562 leukemia) of the same compound?
A: 11.9 µM

Q: And the TGI (K-562 leukemia)?
A: > 50 µM

Q: What about the GI50 (KM12 colon) of the same compound?
A: 40.8 µM

Q: What about the TGI (KM12 colon) of the same compound?
A: > 50 µM

Q: What about the GI50 (LOX IMVI melanoma) of the same compound?
A: 27.5 µM

Q: And the TGI (LOX IMVI melanoma)?
A: > 50 µM

Q: What about the GI50 (M14 melanoma) of the same compound?
A: > 50 µM

Q: What about the TGI (M14 melanoma) of the same compound?
A: > 50 µM

Q: What about the GI50 (MCF7 breast) of the same compound?
A: 16.5 µM

Q: What about the TGI (MCF7 breast) of the same compound?
A: > 50 µM

Q: What about the GI50 (MDA-MB-231 breast) of the same compound?
A: > 50 µM

Q: What about the TGI (MDA-MB-231 breast) of the same compound?
A: > 50 µM

Q: What about the GI50 (MDA-MB-435) of the same compound?
A: > 50 µM

Q: And the TGI (MDA-MB-435)?
A: > 50 µM

Q: And the GI50 (MOLT-4 leukemia)?
A: 17 µM

Q: And the TGI (MOLT-4 leukemia)?
A: > 50 µM

Q: And the GI50 (NCI-H226 lung)?
A: 32.1 µM

Q: What about the TGI (NCI-H226 lung) of the same compound?
A: > 50 µM

Q: And the GI50 (NCI-H23 lung)?
A: 19.8 µM

Q: What about the TGI (NCI-H23 lung) of the same compound?
A: > 50 µM

Q: And the GI50 (NCI-H460 lung)?
A: 22.4 µM

Q: What about the TGI (NCI-H460 lung) of the same compound?
A: > 50 µM

Q: And the GI50 (NCI-H522 lung)?
A: > 50 µM

Q: What about the TGI (NCI-H522 lung) of the same compound?
A: > 50 µM

Q: And the GI50 (NCI/ADR-RES ovarian)?
A: 23.2 µM

Q: And the TGI (NCI/ADR-RES ovarian)?
A: > 50 µM

Q: And the GI50 (OVCAR-3 ovarian)?
A: > 50 µM

Q: And the TGI (OVCAR-3 ovarian)?
A: > 50 µM

Q: And the GI50 (OVCAR-4 ovarian)?
A: > 50 µM

Q: And the TGI (OVCAR-4 ovarian)?
A: > 50 µM

Q: What about the GI50 (OVCAR-5 ovarian) of the same compound?
A: > 50 µM

Q: What about the TGI (OVCAR-5 ovarian) of the same compound?
A: > 50 µM

Q: And the GI50 (OVCAR-8 ovarian)?
A: 21.4 µM

Q: What about the TGI (OVCAR-8 ovarian) of the same compound?
A: > 50 µM

Q: What about the GI50 (PC-3 prostate) of the same compound?
A: > 50 µM

Q: And the TGI (PC-3 prostate)?
A: > 50 µM

Q: What about the GI50 (RPMI-8226 leukemia) of the same compound?
A: 28.7 µM

Q: What about the TGI (RPMI-8226 leukemia) of the same compound?
A: > 50 µM

Q: And the GI50 (RXF 393 renal)?
A: 42.4 µM

Q: What about the TGI (RXF 393 renal) of the same compound?
A: > 50 µM

Q: What about the GI50 (SF-268 CNS) of the same compound?
A: 44.1 µM

Q: And the TGI (SF-268 CNS)?
A: > 50 µM

Q: And the GI50 (SF-295 CNS)?
A: > 50 µM

Q: What about the TGI (SF-295 CNS) of the same compound?
A: > 50 µM

Q: What about the GI50 (SF-539 CNS) of the same compound?
A: > 50 µM

Q: What about the TGI (SF-539 CNS) of the same compound?
A: > 50 µM

Q: And the GI50 (SK-MEL-2 melanoma)?
A: 20 µM

Q: What about the TGI (SK-MEL-2 melanoma) of the same compound?
A: > 50 µM

Q: And the GI50 (SK-MEL-28 melanoma)?
A: > 50 µM

Q: And the TGI (SK-MEL-28 melanoma)?
A: > 50 µM

Q: What about the GI50 (SK-MEL-5 melanoma) of the same compound?
A: 20.2 µM

Q: And the TGI (SK-MEL-5 melanoma)?
A: > 50 µM

Q: What about the GI50 (SN12C renal) of the same compound?
A: > 50 µM

Q: What about the TGI (SN12C renal) of the same compound?
A: > 50 µM

Q: And the GI50 (SNB-19 CNS)?
A: 6.51 µM

Q: What about the TGI (SNB-19 CNS) of the same compound?
A: 31.3 µM

Q: And the GI50 (SNB-75 CNS)?
A: 7.71 µM

Q: What about the TGI (SNB-75 CNS) of the same compound?
A: > 50 µM

Q: What about the GI50 (SR leukemia) of the same compound?
A: 12.5 µM

Q: What about the TGI (SR leukemia) of the same compound?
A: > 50 µM

Q: What about the GI50 (SW-620 colon) of the same compound?
A: 10.8 µM

Q: What about the TGI (SW-620 colon) of the same compound?
A: 39.4 µM

Q: What about the GI50 (TK-10 renal) of the same compound?
A: 11.9 µM

Q: And the TGI (TK-10 renal)?
A: 43.7 µM

Q: What about the GI50 (U251 CNS) of the same compound?
A: > 50 µM

Q: And the TGI (U251 CNS)?
A: > 50 µM

Q: What about the GI50 (UACC-257 melanoma) of the same compound?
A: 47 µM

Q: And the TGI (UACC-257 melanoma)?
A: > 50 µM

Q: And the GI50 (UACC-62 melanoma)?
A: 36.9 µM

Q: What about the TGI (UACC-62 melanoma) of the same compound?
A: > 50 µM

Q: What about the GI50 (UO-31 renal) of the same compound?
A: 40.1 µM

Q: What about the TGI (UO-31 renal) of the same compound?
A: > 50 µM
